According to EP0182609A2, “Polycyclic biocidal compounds, their synthesis, formulations containing them” (THE WELLCOME FOUNDATION LIMITED, priority 1984, dated 1986):
Read-outs that look alike come from different tables or passages of the source.

Key:
[1] = LD20 determined in the P388/0 test; assay type: in vivo
Method: (§1) CD2-F1 mice, of the same sex, weighing 20t3g are used for this test. Control and test animals are injected intraperitoneally with a suspension of -10^6 viable P388/0 tumor cells on day 0. In each test several dose levels which bracket the LD20 for the compound are evaluated; each dose level group contains 6 animals. The test compounds are prepared either in physiologic saline containing 0.05% Tween 80 or distilled water containing 5% dextrose and are administered intraperitoneally on days 1, 5, and 9 relative to tumor implant. Doses are on a mg/kg basis according to individual animals' body weights. The day of death for each animal is recorded, the median identified for each group and the ratios of median survival time for treated (T)/control (C) groups are calculated. The criterion for activity is T/C x 100 >120%.

P388/0 tumor cells = assay: Lymphocytic Leukemia P388/0 Test; assay type: in vivo, CD2-F1 mice; settings: for Optimal Dose: intraperitoneally on days 1, 5, and 9 relative to tumor implant; for T/C x 100% (Excluding 30 Day survivors): median survival time treated/control at optimal dose, i.p. days 1, 5, and 9, criterion for activity >120%
From the text: Methods for evaluating the antitumour activity of these compounds are essentially those used in the Tumor Panel by the Developmental Therapeutics Program, Division of Cancer Treatment, National Cancer institute, A. Goldin, et al., Methods in Cancer Research, Vol. XVI, p. 165, Academic Press (1979). Some modifications, in dose level and schedule have been made to increase the testing efficiency.
as §1

Saccharomyces cerevisiae = assay: In vitro antifungal activity, minimum fungistatic concentration; assay type: cell-based; settings: read-out: Minimum Fungistatic Concentration
Method: The minimum fungistatic concentrations of compounds of the formula (I) against various fungi were obtained using standard techniques. The tests were carried out in either medium A or medium B (see below) and the standard used in each instance was Miconazole nitrate.

[2] = intraperitoneally on days 1, 5, and 9, tumor-bearing mice

Compound	LD20 [1, 2] [mg/kg]	Optimal Dose (P388/0 tumor cells) [mg/kg]	T/C x 100% (Excluding 30 Day survivors) (P388/0 tumor cells)	LD20 ([1]; mouse, in vivo, ip) [mg/kg]	MIC (Saccharomyces cerevisiae; medium A or medium B) [mg/L]	MIC (Saccharomyces cerevisiae) [mg/L]
CC(CO)(CO)NCc1c2ccccc2c(Cl)c2cc3ccccc3cc12.Cl [Example 6C, 2-[(12-chloro-5-naphthacenylmethyl)amino]-2-methyl-1,3-propanediol hydrochloride]	70	40	+150%			
CC(CO)(CO)NCc1c2ccccc2c2ccc3cccc4ccc1c2c43 [Example 2, 2-[(Benzo[a]pyren-6-ylmethyl)amino]-2-methyl-1,3-propanediol methanesulfonate]	100	111	+204%			
CC(CO)(CO)NCc1c2ccccc2c(Cl)c2cc3ccccc3cc12 [Example 6B, 2-[(12-Chloro-5-naphthacenylmethyl)amino]-2-methyl-1,3-propanediol methanesulfonate]		75	+150%	70		
Clc1ccc(COC(Cn2ccnc2)c2ccc(Cl)cc2Cl)c(Cl)c1 (centres unmarked) [Miconazole Nitrate, Miconazole nitrate, reference compound]					≤ 0.4	
CC(CO)(CO)NCc1c2ccccc2cc2cc3ccccc3cc12 [Example 3C, 2-[(5-naphthacenylmethyl)amino]-2-methyl-1,3-propanediol methanesulfonate]		60	+195%	50		
CC(CO)(CO)NCc1c2c(cc3ccccc13)Cc1ccccc1-2 [Example 4B, 2-[(11H-Benzo[b]fluoren-5-ylmethyl)amino]-2-methyl-1,3-propanediol methanesulfonate]		225	+280%	300		
CC(CO)(CO)NCc1cc2ccc3ccccc3c2c2ccccc12 [Example 5B, 2[(Benzo[c]phenanthren-5-ylmethyl)amino]-2-methyl-1,3-propanediol methanesulfonate]	10	15	+140%			≤ 0.4
CC(CO)(CO)NCc1c2ccccc2cc2c1ccc1ccccc12 [Example 1, 2-((7-Benz[a]anthracenylmethyl)amino)-2-methyl-1,3-propanediol methanesulfonate]	180	220	+270%			
